Columns and labels:
Type in all cases: in vivo, C57BL/6 mice
[1] = tested on: OVA-expressing B16 melanoma cells; experiment: Therapeutic vaccination of melanoma-bearing mice (Example 1); conditions: immunised after appearance of tumours under the skin; FIG. 2A
OVA-expressing B16 cells = experiment: Metastatic potential of melanoma, lung melanoma spots after intravenous B16 (Example 1); conditions: B16 melanoma cells given intravenously after immunisation; FIG. 4
Experimental: C57BLJ6 mice were vaccinated as above with OVA with or without TPSC2a and challenged four days later with 500,000 OVA-expressing B16 cells given by intravenous injection. On day 19, mice were euthanized and spleens and lungs were harvested. The lungs were analysed by counting melanoma spots as a measure for metastasis. Spleen cells were analysed by flow cytometry for CD8 T-cell activation as described above.

[2] = tested on: spleen cells restimulated by SIINFEKL peptide; experiment: Poly(IC) and CpG experiment, IFN-gamma ELISA of restimulated spleen cells (Example 4); conditions: day 14 spleen cells; FIG. 19B
Experimental: For ELISA analysis 2×10^5 splenocytes were re-stimulated in 96-well plates with 0.005 μg/ml of the SIINFEKL peptide. After 72 hours, supernatants were collected and analysed for IFN-γ by ELISA (eBioscience—performed according to the manufacturer's instructions).
The experiment was performed as described under Materials and Methods, and mouse blood samples from day 7 after vaccination were analysed by flow cytometry as described. Spleen cells from day 14 were restimulated by SIINFEKL peptide and analysed by Interferon-gamma ELISA as described. All mice received OT-1 cells as described. • The following experimental groups were included: • 1. Untreated: Mice received OT-1 cells, but were not vaccinated or illuminated. • 2. OVA: Mice were vaccinated with 10 μg of OVA. They were not illuminated. • 3. OVA 100 μg: Mice were vaccinated with a mixture of 100 μg OVA. They were not illuminated. • 4. OVA 10 μg PCI: Mice were vaccinated with a mixture of 10 μg OVA+150 μg TPCS2a. Illuminated as described. • 5. CpG OVA: Mice were vaccinated with a mixture of 10 μg OVA+50 μg ODN2935 CpG oligonucleotide. They were not illuminated. • 6. CpG OVA/PCI: Mice were vaccinated with a mixture of 10 μg OVA+50 μg ODN2935 CpG oligonucleotide+150 μg TPCS2a. Illuminated as described. • 7. Poly(IC) OVA: Mice were vaccinated with a mixture of 10 μg OVA+50 μg Poly(IC). They were not illuminated. • 8. […]

[3] = tested on: OVA-expressing B16-melanoma tumours; experiment: Histological analysis of tumour and tumour infiltrates (Example 1); conditions: immune histochemistry; FIG. 3A
Experimental: C57BLJ6 mice received 500,000 OVA-expressing B16-melanoma cells intradermally as described above. Six days later, the mice were vaccinated with 10 μg OVA ±100 μg TPCS2a as described above. On day 7, the mice were treated with 4.86 J/cm2 light. On day 15, the mice were euthanized and the tumours excised and cut in two pieces, one snap frozen in liquid nitrogen and one fixed in formalin (2 days) and 60% ethanol before embedded in paraffin. The frozen tissues were sectioned and stained with anti-mouse CD8, CD4, and caspase-3 antibodies for immune histochemistry. Paraffin sections were stained with haematoxylin and eosin.

[4] = tested on: OVA-expressing B16 melanoma cells; experiment: Prophylactic vaccination against intradermal melanoma challenge (Example 1); conditions: B16 cells intradermally five days after immunisation; FIG. 1D
Experimental: C57BL/6 mice were immunised at 6-10 weeks of age. […] The next day, the fur was shaven off the abdominal region and 100 μl of the vaccine preparations were injected intradermally. The doses of OVA and TPCS2a were 10 μg and 100 μg, respectively.
If not otherwise stated, C57BL/6 mice were vaccinated as described above 4-5 days prior to, or 7-8 days after, the tumour challenge with 500,000 OVA-expressing B16-melanoma cells injected intradermally into one of the mouse flanks; 10,000 OT-I cells were transferred intravenously to the recipient one day before prophylactic vaccination, or one day before B16 injection in the therapeutic vaccination model. […] The tumour growth was monitored by measuring the size of the neoplasm with a calliper.

[5] = tested on: SIINFEKL-specific CD8 T cells; experiment: PCI immunisation of OT-I-spiked mice, SIINFEKL pentamer flow cytometry (Example 2)
Experimental: One day prior to the immunisation, spleens and lymph nodes were isolated from female OT-1 mice, and erythrocytes were removed by lysis (RBC Lysing Buffer Hybri-Max from Sigma-Aldrich) from the homogenised cell suspensions. The remaining cells were washed in PBS, filtered through 70 micron nylon strainers, and 2×10^6 OT-1 cells were administered by intravenous injection into recipient female C57BLJ6 mice; the adoptive transfer of SIINFEKL-specific CD8 T cells facilitates monitoring of the immune response by flow cytometry. One day or 8 hours later, mice were bled by tail bleeding, and the blood was collected in heparin-containing tubes for analysis of the baseline frequency of OVA-specific CD8 T cells.
Then, the mice were shaved on the abdominal area, and the vaccines, consisting of OVA or of a mixture of OVA and TPCS2a, were injected intradermally using syringes with 29G needles. The vaccines were kept light protected and used within 60 minutes of preparation. The vaccines were given in two injections of 50 μl each, on the left and right side of the abdominal mid line. OVA was tested at 10 to 100 μg per dose. The TPCS2a dose was 7.5 to 250 μg.
On day 0, prior to vaccination and on various days thereafter (e.g. day 6, 7, 8, 9, 14, 23, as indicated) mice were bled by tail bleeding and erythrocytes were removed by lysis, before analysis of antigen-specific CD8 T cells by flow cytometry. At the end of the experiment (typically 11, 12, 14 or 23 days), the mice were euthanized and the splenocytes analysed ex vivo. At various time points after the TPCS2a injection (0-48 hours), the mice were anaesthetised by intraperitoneal injection of a mixture of ketamine (25 mg/kg body weight) and xylazin (4 mg/kg) and placed on a light source (for illumination and activation of the photosensitiser TPCS2a). The light dose was 6 minutes, if not otherwise stated. The whole procedure is illustrated in the scheme of FIG. 6A. The illumination of mice using LumiSource™ is imaged in FIG. 6B.
(§1) The frequency of OVA-specific CD8 T-cells in blood was monitored by staining the cells with anti-CD8 antibody and H-2K^b/SIINFEKL ProS pentamer (Proimmune, Oxford, UK) for analysis by flow cytometry. The activation status of the cells was further analysed by testing the expression of CD44 and CD69 by flow cytometry. Intracellular staining for IFN-γ was done after overnight stimulation of splenocytes in 24-well plates with the CD8 epitope OVA257-264 (SIINFEKL) at 37 ° C. Brefeldin A was added during the last 4 hours. The cells were then washed and fixed with 4% formaldehyde in PBS for 10 min on ice. Anti-CD16/32 was added to block unspecific binding to Fc receptors. The cells were then permeabilised with 0.1% NP40 in PBS for 3 min and washed before staining with anti-IFN-γ, anti-CD8 and ant-CD44 antibodies (eBioscience or BD Pharmingen). The cells were acquired using FACSCanto (BD Biosciences, San Jose, USA) and analysed using FlowJo 8.5.2 software (Tree Star, Inc., Ashland, Oreg.).

[6] = tested on: CD8, CD44 and IFN-γ positive cells; experiment: Intracellular IFN-γ staining after SIINFEKL re-stimulation (Example 2)
Experimental: as §1

In the case of “OVA: Chicken ovalbumin protein, model antigen expressed by the transfected B16 melanoma cells”, the “growth of established tumours” value [1] was “grew readily”, the “melanoma spots (lung metastases) on the lung, average” value (OVA-expressing B16 cells) was “approx. 50” and the “IFN-gamma ELISA after restimulation of spleen cells with SIINFEKL peptide” value [2] was “virtually no effect”. The “infiltration of CD8 T cells into the intradermal tumour” value [3] was “no benefit compared to no treatment”, the “mice that developed tumours” value [4] was “Fifty” and the “effect on SIINFEKL-specific CD8 T cells in blood as compared to untreated animals” value ([5]; 10 μg OVA alone, data not shown) was “no measurable effect”. For the same substance, the “activation markers CD44, CD25 and CD69 on SIINFEKL-specific cells in blood” value ([5]; by day six) was “strong up-regulation”, the “numbers of antigen-specific CD8 T cells” value ([5]; day 23, OVA alone, or OVA plus TPCS2a illuminated two hours after administration) was “retracted to baseline levels” and the “frequencies of measurable SIINFEKL-specific CD8 T cells in splenocytes” value ([5]; day 54, 20 μg OVA with or without 200 μg TPCS2a, FIG. 14A) was “not different from untreated mice”. The “frequency of SIINFEKL-specific CD8 T cells in the peripheral blood” value ([5]; day six, 100 μg OVA alone, or with 25 μg TPCS2a illuminated two hours after vaccination) was “approximately 3.5%”, the “responders for IFN-γ production in splenocytes (better responders among mice tested)” value ([6]; day 11, 10 μg OVA alone, or OVA and PCI (ten mice, 25 and 250 μg TPCS2a)) was “weak responders in all mice tested” and the “increase in frequency of IFN-γ-producing CD44-positive CD8 cells compared to control mice with OT-I transfer only” value ([6]; day 14 PBMCs, OVA alone, or PCI with illumination at 2 hours) was 4 fold. For the same substance, the “frequencies of CD44-positive IFN-γ producing cells in splenocytes” value ([6]; day 23, FIG. 7E right panel) was “barely detectable frequencies”.
